Reference: PMC4457528, “Identification of Novel Small Molecule Inhibitors of Oncogenic RET Kinase” (PLoS ONE, 2015)
Read-outs that look alike come from different tables or passages of the source.

How the values were obtained:
Experiment in all cases: KinomeScan kinase panel, single concentration 10 µM
Assay type in all cases: binding
KinomeScan kinase panel [1] = target: T1, KinomeScan kinase panel (Homo sapiens, UniProt Q00535); details: CDK5, 10 µM; read-out: score (%)
T1 construct: purchased DiscoveRx (KinomeScan)
T1 sequence (Q00535 whole entry): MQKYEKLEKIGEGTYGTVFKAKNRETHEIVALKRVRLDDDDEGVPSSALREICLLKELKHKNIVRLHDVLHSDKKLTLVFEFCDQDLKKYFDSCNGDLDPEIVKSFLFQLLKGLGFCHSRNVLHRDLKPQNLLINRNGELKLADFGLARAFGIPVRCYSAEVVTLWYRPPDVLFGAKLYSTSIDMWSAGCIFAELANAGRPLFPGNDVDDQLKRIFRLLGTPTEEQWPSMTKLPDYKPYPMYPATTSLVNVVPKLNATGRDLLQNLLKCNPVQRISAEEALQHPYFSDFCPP

KinomeScan kinase panel [2] = target: T2, KinomeScan kinase panel (Homo sapiens, UniProt P12931); details: 10 µM, read-out: score (%)
T2 construct: purchased DiscoveRx (KinomeScan)
T2 sequence (P12931 whole entry): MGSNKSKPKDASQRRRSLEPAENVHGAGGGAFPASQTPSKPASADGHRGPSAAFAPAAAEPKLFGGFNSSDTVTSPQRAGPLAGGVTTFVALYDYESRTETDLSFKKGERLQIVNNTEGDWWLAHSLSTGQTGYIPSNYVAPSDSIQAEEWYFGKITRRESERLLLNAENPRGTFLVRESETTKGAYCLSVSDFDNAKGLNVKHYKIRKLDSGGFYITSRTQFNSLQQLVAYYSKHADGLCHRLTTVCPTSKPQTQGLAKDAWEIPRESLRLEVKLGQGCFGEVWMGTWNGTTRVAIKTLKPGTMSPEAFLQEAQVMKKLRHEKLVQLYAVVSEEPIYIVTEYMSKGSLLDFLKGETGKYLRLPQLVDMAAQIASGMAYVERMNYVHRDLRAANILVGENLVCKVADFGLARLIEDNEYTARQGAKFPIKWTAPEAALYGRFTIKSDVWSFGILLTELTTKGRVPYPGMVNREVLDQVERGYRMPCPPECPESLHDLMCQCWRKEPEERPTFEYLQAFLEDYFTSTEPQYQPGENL

KinomeScan kinase panel [3] = target: T3, KinomeScan kinase panel (Homo sapiens, UniProt P00533, L858R); details: EGFR(L858R), 10 µM
T3 construct: purchased DiscoveRx (KinomeScan)

KinomeScan kinase panel [4] = target: T4, KinomeScan kinase panel (Homo sapiens, UniProt Q16816); details: PHKG1, 10 µM; read-out: score (%)
T4 construct: purchased DiscoveRx (KinomeScan)

KinomeScan kinase panel [5] = target: T5, KinomeScan kinase panel (Homo sapiens, UniProt P06241); details: FYN, 10 µM; read-out: score (%)
T5 construct: purchased DiscoveRx (KinomeScan)
T5 sequence (P06241 whole entry): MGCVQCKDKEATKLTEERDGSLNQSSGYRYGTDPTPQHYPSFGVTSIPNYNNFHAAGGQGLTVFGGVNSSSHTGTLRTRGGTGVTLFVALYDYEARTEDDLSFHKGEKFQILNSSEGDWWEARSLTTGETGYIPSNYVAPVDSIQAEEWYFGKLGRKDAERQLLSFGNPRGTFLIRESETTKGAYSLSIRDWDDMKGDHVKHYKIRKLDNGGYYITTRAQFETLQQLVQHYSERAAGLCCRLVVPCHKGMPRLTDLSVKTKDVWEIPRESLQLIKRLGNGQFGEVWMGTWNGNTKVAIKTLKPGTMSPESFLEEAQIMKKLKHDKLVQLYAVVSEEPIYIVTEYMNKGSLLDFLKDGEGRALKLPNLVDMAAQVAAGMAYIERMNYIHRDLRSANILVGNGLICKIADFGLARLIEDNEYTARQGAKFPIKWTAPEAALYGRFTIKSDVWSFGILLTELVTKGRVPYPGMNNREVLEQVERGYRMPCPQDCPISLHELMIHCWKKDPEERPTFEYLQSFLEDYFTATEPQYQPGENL

KinomeScan kinase panel [6] = target: T6, KinomeScan kinase panel (Homo sapiens, UniProt Q92918); details: read-out: score (%)
T6 construct: purchased DiscoveRx (KinomeScan)
T6 sequence (Q92918 whole entry): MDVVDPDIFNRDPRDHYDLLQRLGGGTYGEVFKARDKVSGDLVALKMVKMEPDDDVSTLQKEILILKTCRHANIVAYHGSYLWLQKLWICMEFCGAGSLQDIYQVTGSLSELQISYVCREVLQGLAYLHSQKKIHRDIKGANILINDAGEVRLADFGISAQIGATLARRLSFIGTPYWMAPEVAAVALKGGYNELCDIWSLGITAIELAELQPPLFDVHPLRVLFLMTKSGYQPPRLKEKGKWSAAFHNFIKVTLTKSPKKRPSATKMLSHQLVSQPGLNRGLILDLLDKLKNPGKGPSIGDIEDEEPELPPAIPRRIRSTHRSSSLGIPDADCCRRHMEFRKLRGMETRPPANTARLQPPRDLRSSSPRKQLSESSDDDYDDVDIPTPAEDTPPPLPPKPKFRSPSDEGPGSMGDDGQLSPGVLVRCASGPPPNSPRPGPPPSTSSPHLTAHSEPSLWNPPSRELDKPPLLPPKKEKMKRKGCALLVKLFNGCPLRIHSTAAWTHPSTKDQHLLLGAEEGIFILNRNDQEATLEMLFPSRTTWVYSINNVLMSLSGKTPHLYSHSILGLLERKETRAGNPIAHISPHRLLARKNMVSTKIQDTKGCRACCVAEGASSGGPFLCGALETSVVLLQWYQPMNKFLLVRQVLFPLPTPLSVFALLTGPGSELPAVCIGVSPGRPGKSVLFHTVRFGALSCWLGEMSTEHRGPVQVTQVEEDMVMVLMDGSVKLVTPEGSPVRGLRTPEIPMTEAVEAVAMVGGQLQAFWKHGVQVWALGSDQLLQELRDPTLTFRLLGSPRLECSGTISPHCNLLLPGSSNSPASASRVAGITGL

KinomeScan kinase panel [7] = target: T7, KinomeScan kinase panel (Homo sapiens, UniProt P17948); details: FLT1, 10 µM; read-out: score (%)
T7 construct: purchased DiscoveRx (KinomeScan)

KinomeScan kinase panel [8] = target: T8, KinomeScan kinase panel (Homo sapiens, UniProt Q16659); details: ERK3, 10 µM; read-out: score (%)
T8 construct: purchased DiscoveRx (KinomeScan)
T8 sequence (Q16659 whole entry): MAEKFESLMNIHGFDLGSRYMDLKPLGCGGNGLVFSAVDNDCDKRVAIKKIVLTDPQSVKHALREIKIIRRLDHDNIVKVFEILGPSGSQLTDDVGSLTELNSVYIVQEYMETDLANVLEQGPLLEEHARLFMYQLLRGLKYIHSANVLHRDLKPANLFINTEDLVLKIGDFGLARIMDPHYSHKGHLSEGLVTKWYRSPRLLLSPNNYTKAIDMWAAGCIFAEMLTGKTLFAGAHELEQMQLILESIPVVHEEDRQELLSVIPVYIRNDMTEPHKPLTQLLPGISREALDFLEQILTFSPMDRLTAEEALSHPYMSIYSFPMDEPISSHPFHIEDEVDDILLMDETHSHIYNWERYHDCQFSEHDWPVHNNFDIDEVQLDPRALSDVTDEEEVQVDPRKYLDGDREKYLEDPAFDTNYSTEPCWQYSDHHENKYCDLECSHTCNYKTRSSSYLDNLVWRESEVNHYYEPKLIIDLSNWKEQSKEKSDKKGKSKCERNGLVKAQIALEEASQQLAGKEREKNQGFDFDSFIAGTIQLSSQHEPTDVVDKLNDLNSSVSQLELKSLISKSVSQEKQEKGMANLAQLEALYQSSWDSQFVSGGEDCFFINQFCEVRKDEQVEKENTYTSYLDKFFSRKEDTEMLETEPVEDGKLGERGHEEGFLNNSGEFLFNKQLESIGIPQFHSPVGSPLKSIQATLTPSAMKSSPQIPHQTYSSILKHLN

KinomeScan kinase panel [9] = target: T9, KinomeScan kinase panel (Homo sapiens, UniProt Q16512); details: PKN1, 10 µM; read-out: score (%)
T9 construct: purchased DiscoveRx (KinomeScan)
T9 sequence (Q16512 whole entry): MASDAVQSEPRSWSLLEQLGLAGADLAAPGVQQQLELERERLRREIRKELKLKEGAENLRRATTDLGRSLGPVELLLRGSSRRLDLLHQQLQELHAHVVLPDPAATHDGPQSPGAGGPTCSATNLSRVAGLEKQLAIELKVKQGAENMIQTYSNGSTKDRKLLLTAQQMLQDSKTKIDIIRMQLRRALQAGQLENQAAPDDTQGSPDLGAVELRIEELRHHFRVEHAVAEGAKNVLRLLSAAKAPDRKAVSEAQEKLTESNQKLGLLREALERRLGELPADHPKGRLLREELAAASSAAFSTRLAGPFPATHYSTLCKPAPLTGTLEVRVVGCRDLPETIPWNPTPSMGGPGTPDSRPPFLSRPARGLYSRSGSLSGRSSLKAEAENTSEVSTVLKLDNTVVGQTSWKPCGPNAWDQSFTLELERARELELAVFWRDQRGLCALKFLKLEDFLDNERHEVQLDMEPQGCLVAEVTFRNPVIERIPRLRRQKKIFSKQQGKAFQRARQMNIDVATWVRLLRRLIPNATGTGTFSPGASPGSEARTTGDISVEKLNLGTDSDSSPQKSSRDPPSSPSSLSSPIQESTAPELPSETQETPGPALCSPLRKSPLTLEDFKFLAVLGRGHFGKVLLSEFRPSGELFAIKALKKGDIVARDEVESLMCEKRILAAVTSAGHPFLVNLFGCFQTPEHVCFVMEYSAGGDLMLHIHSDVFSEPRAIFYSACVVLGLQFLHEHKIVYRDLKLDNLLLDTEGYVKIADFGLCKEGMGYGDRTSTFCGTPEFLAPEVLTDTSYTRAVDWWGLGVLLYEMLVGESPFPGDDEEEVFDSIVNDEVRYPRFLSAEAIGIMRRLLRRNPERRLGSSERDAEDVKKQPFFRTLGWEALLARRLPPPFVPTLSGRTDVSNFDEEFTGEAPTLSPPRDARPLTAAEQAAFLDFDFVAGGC

KinomeScan kinase panel [10] = target: T10, KinomeScan kinase panel (Homo sapiens, UniProt P00533, DEL746-750)
T10 construct: purchased DiscoveRx (KinomeScan)
T10 sequence (P00533 with tags, fused parts or gaps DEL746-750): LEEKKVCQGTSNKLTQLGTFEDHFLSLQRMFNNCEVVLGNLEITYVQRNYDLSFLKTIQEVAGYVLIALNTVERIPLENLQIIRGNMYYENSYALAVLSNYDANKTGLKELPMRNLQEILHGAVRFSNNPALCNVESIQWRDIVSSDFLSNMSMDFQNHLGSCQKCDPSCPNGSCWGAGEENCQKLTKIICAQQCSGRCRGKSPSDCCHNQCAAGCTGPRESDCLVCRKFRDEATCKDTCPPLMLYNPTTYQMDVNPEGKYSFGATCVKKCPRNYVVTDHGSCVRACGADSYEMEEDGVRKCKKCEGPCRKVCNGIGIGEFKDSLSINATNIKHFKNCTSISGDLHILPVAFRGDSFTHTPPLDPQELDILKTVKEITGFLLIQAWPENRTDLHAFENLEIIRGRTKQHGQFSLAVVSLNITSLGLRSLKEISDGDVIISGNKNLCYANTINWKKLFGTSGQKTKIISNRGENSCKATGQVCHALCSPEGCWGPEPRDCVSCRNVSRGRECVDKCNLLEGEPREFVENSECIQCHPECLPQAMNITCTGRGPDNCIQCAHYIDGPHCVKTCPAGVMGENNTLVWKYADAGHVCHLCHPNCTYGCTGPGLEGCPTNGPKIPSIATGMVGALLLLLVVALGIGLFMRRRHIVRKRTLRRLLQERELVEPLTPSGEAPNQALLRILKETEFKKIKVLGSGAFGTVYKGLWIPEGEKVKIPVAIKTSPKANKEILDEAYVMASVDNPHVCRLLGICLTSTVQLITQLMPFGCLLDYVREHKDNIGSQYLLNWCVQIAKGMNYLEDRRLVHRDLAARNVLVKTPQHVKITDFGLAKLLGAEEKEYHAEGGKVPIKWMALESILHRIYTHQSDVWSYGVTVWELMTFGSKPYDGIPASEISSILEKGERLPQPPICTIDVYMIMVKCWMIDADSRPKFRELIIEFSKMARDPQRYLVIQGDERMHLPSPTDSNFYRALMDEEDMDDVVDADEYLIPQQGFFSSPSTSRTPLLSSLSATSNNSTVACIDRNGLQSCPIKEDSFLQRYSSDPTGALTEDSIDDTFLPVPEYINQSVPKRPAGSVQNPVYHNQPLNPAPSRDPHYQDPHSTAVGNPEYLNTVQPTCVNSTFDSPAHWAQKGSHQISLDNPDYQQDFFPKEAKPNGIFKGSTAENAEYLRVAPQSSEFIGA

KinomeScan kinase panel [11] = target: T11, KinomeScan kinase panel (Homo sapiens, UniProt P29320); details: EPHA3, 10 µM; read-out: score (%)
T11 construct: purchased DiscoveRx (KinomeScan)
T11 sequence (P29320 21-983): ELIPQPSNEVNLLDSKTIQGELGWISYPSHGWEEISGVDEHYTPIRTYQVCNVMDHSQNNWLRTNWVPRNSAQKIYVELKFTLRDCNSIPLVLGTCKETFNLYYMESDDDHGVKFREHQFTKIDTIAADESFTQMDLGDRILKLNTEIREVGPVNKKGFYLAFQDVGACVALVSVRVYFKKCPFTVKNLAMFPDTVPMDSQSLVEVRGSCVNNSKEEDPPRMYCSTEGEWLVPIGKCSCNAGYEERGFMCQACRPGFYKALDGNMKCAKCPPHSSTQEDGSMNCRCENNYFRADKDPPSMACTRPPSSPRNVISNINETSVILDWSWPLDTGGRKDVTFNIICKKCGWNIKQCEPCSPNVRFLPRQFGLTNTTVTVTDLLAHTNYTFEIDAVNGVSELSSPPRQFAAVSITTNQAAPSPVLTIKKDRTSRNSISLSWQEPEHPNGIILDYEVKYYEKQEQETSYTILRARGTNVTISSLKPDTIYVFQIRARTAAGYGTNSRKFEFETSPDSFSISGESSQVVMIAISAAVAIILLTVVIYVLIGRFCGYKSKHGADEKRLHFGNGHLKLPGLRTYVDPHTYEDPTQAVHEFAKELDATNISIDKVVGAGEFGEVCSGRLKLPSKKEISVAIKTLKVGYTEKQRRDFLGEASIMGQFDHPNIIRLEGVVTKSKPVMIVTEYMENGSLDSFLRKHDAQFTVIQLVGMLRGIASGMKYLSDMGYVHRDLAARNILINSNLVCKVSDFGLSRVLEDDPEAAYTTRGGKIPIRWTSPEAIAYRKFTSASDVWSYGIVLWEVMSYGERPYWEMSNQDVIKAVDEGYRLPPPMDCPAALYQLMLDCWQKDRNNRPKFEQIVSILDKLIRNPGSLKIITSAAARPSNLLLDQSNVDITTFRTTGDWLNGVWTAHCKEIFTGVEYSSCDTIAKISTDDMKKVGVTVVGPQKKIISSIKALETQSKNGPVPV

KinomeScan kinase panel [12] = target: T12, KinomeScan kinase panel (Homo sapiens, UniProt P45983); details: JNK1, 10 µM
T12 construct: purchased DiscoveRx (KinomeScan)

KinomeScan kinase panel [13] = target: T13, KinomeScan kinase panel (Homo sapiens, UniProt O60285); details: ARK5, 10 µM
T13 construct: purchased DiscoveRx (KinomeScan)
T13 sequence (O60285 1-661): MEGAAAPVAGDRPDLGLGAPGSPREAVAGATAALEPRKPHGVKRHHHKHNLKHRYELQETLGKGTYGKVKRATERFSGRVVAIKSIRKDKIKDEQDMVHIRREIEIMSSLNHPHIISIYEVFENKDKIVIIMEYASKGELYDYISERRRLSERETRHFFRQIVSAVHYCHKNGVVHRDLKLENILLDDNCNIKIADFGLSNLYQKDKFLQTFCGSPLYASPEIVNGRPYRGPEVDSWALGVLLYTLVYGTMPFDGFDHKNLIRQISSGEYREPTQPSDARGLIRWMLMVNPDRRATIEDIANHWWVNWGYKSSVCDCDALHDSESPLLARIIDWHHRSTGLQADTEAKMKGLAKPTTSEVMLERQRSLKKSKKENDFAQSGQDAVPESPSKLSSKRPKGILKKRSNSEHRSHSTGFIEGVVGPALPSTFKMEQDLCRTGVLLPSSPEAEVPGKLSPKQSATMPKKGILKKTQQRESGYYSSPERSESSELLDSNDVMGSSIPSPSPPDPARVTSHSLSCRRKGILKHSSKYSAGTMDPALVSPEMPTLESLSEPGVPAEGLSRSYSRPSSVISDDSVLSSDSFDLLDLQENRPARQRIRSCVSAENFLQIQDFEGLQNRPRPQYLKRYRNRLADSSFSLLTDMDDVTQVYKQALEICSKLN

KinomeScan kinase panel [14] = target: T14, KinomeScan kinase panel (Homo sapiens, UniProt Q9UEE5); details: DRAK1, 10 µM; read-out: score (%)
T14 construct: purchased DiscoveRx (KinomeScan)
T14 sequence (Q9UEE5 1-414): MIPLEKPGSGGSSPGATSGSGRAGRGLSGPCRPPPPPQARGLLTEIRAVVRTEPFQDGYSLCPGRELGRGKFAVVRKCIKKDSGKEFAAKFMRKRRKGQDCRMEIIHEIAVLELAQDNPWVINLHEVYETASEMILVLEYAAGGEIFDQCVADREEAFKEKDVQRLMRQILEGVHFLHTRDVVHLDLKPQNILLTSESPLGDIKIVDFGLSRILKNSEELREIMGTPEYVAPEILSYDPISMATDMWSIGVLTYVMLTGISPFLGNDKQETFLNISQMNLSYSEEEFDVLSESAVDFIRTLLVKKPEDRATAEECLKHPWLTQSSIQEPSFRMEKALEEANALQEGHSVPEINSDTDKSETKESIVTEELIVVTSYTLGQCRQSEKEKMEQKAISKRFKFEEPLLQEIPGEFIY

| SMILES | remaining binding at 10 µM (KinomeScan kinase panel [1]) [%] | remaining binding at 10 µM (KinomeScan kinase panel [2]; kinase SRC) [%] | score (%) (KinomeScan kinase panel [3]) | remaining binding at 10 µM (KinomeScan kinase panel [4]) [%] | remaining binding at 10 µM (KinomeScan kinase panel [5]) [%] | remaining binding at 10 µM (KinomeScan kinase panel [6]; HPK1, 10 µM) [%] | remaining binding at 10 µM (KinomeScan kinase panel [7]) [%] | remaining binding at 10 µM (KinomeScan kinase panel [8]) [%] | remaining binding at 10 µM (KinomeScan kinase panel [9]) [%] | score (%) (KinomeScan kinase panel [10]) | remaining binding at 10 µM (KinomeScan kinase panel [11]) [%] | score (%) (KinomeScan kinase panel [12]) | score (%) (KinomeScan kinase panel [13]) | remaining binding at 10 µM (KinomeScan kinase panel [14]) [%] | remaining binding at 10 µM (KinomeScan kinase panel [2]; SRC) [%] | remaining binding at 10 µM (KinomeScan kinase panel [6]; MAP4K1, 10 µM) [%] | score (%) (KinomeScan kinase panel [10]; EGFR(E746-A750del), 10 µM) |
| --- | --- | --- | --- | --- | --- | --- | --- | --- | --- | --- | --- | --- | --- | --- | --- | --- | --- |
| CCN1CCN(Cc2ccc(NC(=O)c3ccc(C)c(NC(=O)c4cncc(-c5cccs5)c4)c3)cc2C(F)(F)F)CC1 [ALW-II-41-27] | > 30 | 0.1 | 0.25 | > 30 | 0.25 | 0.75 | 1 | > 30 | > 30 | 1.2 | 7.6 | nb (Hits values higher than 30% were considered negative (no binding: nb)) | nb (Hits values higher than 30% were considered negative (no binding: nb)) | > 30 | – | – | – |
| CCN1CCN(Cc2ccc(NC(=O)c3ccc(C)c(/C=C/c4cnc5[nH]ccc5c4Cl)c3)cc2C(F)(F)F)CC1 [HG-6-63-01, (E)-3-(2-(4-chloro-1H-pyrrolo[2,3-b]pyridin-5-yl)vinyl)-N-(4-((4-ethylpiperazin-1-yl)methyl)-3-(trifluoromethyl)phenyl)-4-methylbenzamide] | > 30 | – | 0.4 | > 30 | 2.2 | – | 0.2 | > 30 | > 30 | – | 11 | 6.6% | nb (Hits values higher than 30% were considered negative (no binding: nb)) | 0.35 | 0.25 | 0.1 | 0.9 |
| CCN1CCN(Cc2ccc(NC(=O)c3ccc(C)c(C#Cc4cccnc4)c3)cc2C(F)(F)F)CC1 [XMD15-44] | 10 | 0 | 4 | 88 | 0.35 | 0.4 | 0.5 | > 30 | 85 | – | 0.85 | 0.55% | nb (Hits values higher than 30% were considered negative (no binding: nb)) | > 30 | – | – | 1.8 |
